Six compounds from ChEMBL document CHEMBL1124750, “Diels-Alder adducts of vinyl porphyrins: synthesis and in vivo photodynamic effect against a rat bladder tumor” (1990) can be followed below.

Structures are written as SMILES.

The species entered for experiment [1] is Rattus norvegicus. In words: Dose required in phototherapy for twelve days and 73% control in tumor size in male Fischer CDF (F-344)/CrlBr rats. It counts as functional.
For experiment [2], the species on record is Rattus norvegicus. Kind of experiment: Compound evaluated for cytotoxicity in male Fischer CDF (F-344)/CrlBr rats. It counts as functional.
For experiment [3], the species on record is Rattus norvegicus. Kind of experiment: Dose required in phototherapy for twelve days and palpable tumor detected in 50% of male Fischer CDF (F-344)/CrlBr rats. It counts as functional.
Experiment [4] is filed under the species Rattus norvegicus. In words: Dose required in phototherapy for twelve days in tumor size detected in male Fischer CDF (F-344)/CrlBr rats. It counts as functional.
For experiment [5], the species on record is Rattus norvegicus. Kind of experiment: Dose required in phototherapy for twelve days and free of palpable tumor in 100% of male Fischer CDF (F-344)/CrlBr rats.

Turning to `C=Cc1c(C)c2cc3nc(cc4nc(cc5[nH]c(cc1[nH]2)C1(C)C5=CCC(C#N)(C#N)C1(C#N)C#N)C(C)=C4CCC(=O)OC)C(CCC(=O)OC)=C3C` (stereo unspecified), in the experiment listed under Rattus norvegicus [1], the Dose came to 1 mg/kg.
As to `CCC1=C(CC)c2cc3[nH]c(cc4nc(cc5[nH]c(cc1n2)C1=CCC(C#N)(C#N)C(C#N)(C#N)C15CC)C(CC)=C4CC)c(CC)c3CC` (stereo unspecified), in the experiment filed under Rattus norvegicus [2], the Dose is 1 mg/kg.
Compound `CCC1=C(CC)c2cc3[nH]c(cc4nc(cc5[nH]c(cc1n2)C1=CCC(C(=O)OC)=C(C(=O)OC)C15CC)C(CC)=C4CC)c(CC)c3CC` (stereo unspecified) yielded a Dose in the experiment listed under Rattus norvegicus [3] of 1 mg/kg.
On to `C=Cc1c(C)c2cc3nc(cc4nc(cc5[nH]c(cc1[nH]2)C1(C)C5=CCC(C(=O)OC)=C1C(=O)OC)C(C)=C4CCC(=O)OC)C(CCC(=O)OC)=C3C` (stereo unspecified), for which the Dose in the experiment filed under Rattus norvegicus [4] came out at 5 mg/kg.
On to `CCC1=C(C)c2cc3[nH]c(cc4[nH]c(cc5nc(cc1n2)C(C)=C5CC)C1(C)C4=CCC(C#N)(C#N)C1(C#N)C#N)c(C)c3CC` (stereo unspecified), for which the Dose in the experiment listed under Rattus norvegicus [2] is 1 mg/kg.
For `CCC1=C(C)c2cc3[nH]c(cc4nc(cc5[nH]c(cc1n2)C1(C)C5=CCC(C(=O)OC)=C1C(=O)OC)C(C)=C4CC)c(C)c3CC` (stereo unspecified), the Dose in the experiment filed under Rattus norvegicus [5] is 1 mg/kg.
